Laboratory results taken from ChEMBL document CHEMBL1153800, “Carbonic anhydrase inhibitors; fluorinated phenyl sulfamates show strong inhibitory activity and selectivity for the inhibition of the tumor-associated isozymes IX and XII over the cytosolic ones I and II” (Bioorg Med Chem Lett, 2009).

Experiments:
[1] = molecular target: Carbonic anhydrase 1 (Homo sapiens) (UniProt P00915)
Description: Inhibition of human CA1 by stopped flow CO2 hydration assay

Homo sapiens = organism: Homo sapiens; assay: Selectivity ratio of Ki for human recombinant CA9 catalytic domain to Ki for human CA2
[2] = molecular target: Carbonic anhydrase 9 (Homo sapiens) (UniProt Q16790)
Description: Inhibition of tumor associated human recombinant CA9 catalytic domain by stopped flow CO2 hydration assay

[3] = molecular target: Carbonic anhydrase 12 (Homo sapiens) (UniProt O43570)
Chain of Carbonic anhydrase 12 (Homo sapiens) (O43570 whole entry): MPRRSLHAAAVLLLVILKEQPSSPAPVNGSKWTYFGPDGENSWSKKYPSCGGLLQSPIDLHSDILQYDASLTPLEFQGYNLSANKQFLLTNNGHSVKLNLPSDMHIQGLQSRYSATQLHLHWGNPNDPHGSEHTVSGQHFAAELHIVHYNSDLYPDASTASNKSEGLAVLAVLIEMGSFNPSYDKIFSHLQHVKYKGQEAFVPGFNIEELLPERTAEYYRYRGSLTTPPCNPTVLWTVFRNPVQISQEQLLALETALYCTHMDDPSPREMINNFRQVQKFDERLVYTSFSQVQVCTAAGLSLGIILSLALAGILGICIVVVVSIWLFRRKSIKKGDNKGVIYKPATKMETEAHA
Description: Inhibition of tumor associated human recombinant CA12 catalytic domain by stopped flow CO2 hydration assay

[4] = molecular target: Carbonic anhydrase 2 (Homo sapiens) (UniProt P00918)
Description: Inhibition of human CA2 by stopped flow CO2 hydration assay

Chain of Carbonic anhydrase 1 (Homo sapiens) (P00915 2-261 limits assumed): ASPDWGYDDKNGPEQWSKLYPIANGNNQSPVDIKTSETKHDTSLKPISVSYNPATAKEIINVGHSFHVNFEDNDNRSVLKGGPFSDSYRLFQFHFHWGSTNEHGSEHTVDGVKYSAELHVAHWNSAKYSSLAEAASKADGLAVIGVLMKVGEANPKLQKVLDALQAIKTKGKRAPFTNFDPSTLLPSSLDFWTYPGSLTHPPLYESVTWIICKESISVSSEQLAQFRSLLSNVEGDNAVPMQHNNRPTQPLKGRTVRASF

Ki [1] [µM]	Ratio (Homo sapiens)	Ki [2] [µM]	Ki [3]	Ki [4] [µM]	Compound
0.075	11.4	0.0065	3.9	0.074	NS(=O)(=O)Oc1ccc(F)cc1
0.0021	–	0.063	56	–	NS(=O)(=O)Oc1ccccc1
